Data from US9212168B2 (priority 2011, dated 2015).

test system: HCV genotype 1a replicon; experiment: HCV genotype 1a replicon assay (NS3 protease activity readout); type: cell-based, hepatitis C virus; details: HCV genotype 1a replicon
Summary of the method: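 Genotype 1a subgenomic replicon cells (APC89, Huh7.5) were treated with compound dose-responses in G418-free medium, 0.5% DMSO final, for 48 or 72 hours at 37° C. Lysate NS3/4a protease activity measured with 15 μM FRET substrate, 20 min at 37° C (ex 340/em 509 nm); EC50 by 4-parameter fit.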

Structure (SMILES)	Genotype 1a
COC(=O)N[C@H](C(=O)N1C[C@@H](C)C[C@H]1c1nc(-c2ccc(-c3cc(F)c(C(=O)Nc4ccc(N5CCN(C(=O)C(C)(C)C)C[C@H]5C)nc4)cc3OC(F)(F)F)cc2)c[nH]1)C(C)C [Example 4-41]	C (C represents pEC50 between and 9 and about 10, (EC50 between 1 nM and 0.1 nM))
COC(=O)N[C@H](C(=O)N1C[C@H](C)C[C@H]1c1nc(-c2ccc(-c3cc(Cl)c(C(=O)Nc4ccc(N5CCN(C(=O)C(C)(C)C)C[C@H]5C)nc4)cc3OC(F)(F)F)cc2)c[nH]1)C1CCOCC1 [24-5]	C (C represents pEC50 between and 9 and about 10, (EC50 between 1 nM and 0.1 nM))
COC(=O)N[C@H](C(=O)N1C[C@@H](C)C[C@H]1c1nc(-c2ccc(-c3ccc(NC(=O)c4ccc(N5CCN(C(=O)C(C)(C)C)C[C@H]5C)nc4)cc3C(F)(F)F)cc2)c[nH]1)C(C)C [Example 1-63]	D (D represents pEC50>10 (EC50<0.1 nM))
COC(=O)N[C@H](C(=O)N1C[C@@H](C)C[C@H]1c1nc(-c2ccc(-c3cc(F)c(NC(=O)c4ccc(N5CCN(C(=O)C6CC67CC7)C[C@H]5C)nc4)cc3Cl)cc2)c[nH]1)C(C)C (stereo partly shown) [Example 1-84]	C (C represents pEC50 between and 9 and about 10, (EC50 between 1 nM and 0.1 nM))
COC(=O)N[C@H](C(=O)N1C[C@@H](C)C[C@H]1c1nc(-c2ccc(-c3cc(Cl)c(NC(=O)c4ccc(N5CCN(C(=O)C(C)(C)CO)C[C@H]5C)nc4)cc3C(F)(F)F)cc2)c[nH]1)C1CCOCC1 [Example 19-4]	D (D represents pEC50>10 (EC50<0.1 nM))
CNC(=O)N1C[C@@H](C)N(c2ccc(C(=O)Nc3cc(OC(F)(F)F)c(-c4ccc(-c5c[nH]c([C@@H]6C[C@H](C)CN6C(=O)[C@@H](NC(=O)OC)C(C)(C)C)n5)cc4)cc3Cl)cn2)C[C@@H]1C [Example 7-1]	D (D represents pEC50>10 (EC50<0.1 nM))
CNC(=O)N1CCC[C@@]1(C)C(=O)N1CCN(c2ccc(C(=O)Nc3cc(OC(F)(F)F)c(-c4ccc(-c5c[nH]c([C@@H]6C[C@H](C)CN6C(=O)[C@@H](NC(=O)OC)C(C)C)n5)cc4)cc3F)cn2)[C@H](C)C1 [Example 1-28]	D (D represents pEC50>10 (EC50<0.1 nM))
COC(=O)N[C@H](C(=O)N1C[C@@H](OC)C[C@H]1c1nc(-c2ccc(-c3ccc(C(=O)Nc4ccc(N5CCN(C(=O)C(C)(C)CO)C[C@H]5C)nc4)cc3OC(F)(F)F)cc2)c[nH]1)C1CCOCC1 [Example 22-14]	D (D represents pEC50>10 (EC50<0.1 nM))
COC(=O)NC(C(=O)N1CC(C)CC1c1nc(-c2ccc(-c3cc(F)c(NC(=O)c4ccc(N5CCN(C(=O)C6CC6(Cl)Cl)CC5C)nc4)cc3Cl)cc2)c[nH]1)C(C)C (mixture of isomers) [Example 1-77]	D (D represents pEC50>10 (EC50<0.1 nM))
COC(=O)N[C@H](C(=O)N1C[C@@H](C)C[C@H]1c1nc(-c2ccc(-c3cc(Cl)c(NC(=O)c4ccc(N5C[C@H](C)N(C(=O)[C@H]6CCCN6S(C)(=O)=O)C[C@H]5C)nc4)cc3OC(F)(F)F)cc2)c[nH]1)C(C)C [Example 1-45]	D (D represents pEC50>10 (EC50<0.1 nM))
CCCCOC(=O)N[C@H](C(=O)N1C[C@@H](C)C[C@H]1c1nc(-c2ccc(-c3cc(Cl)c(NC(=O)c4ccc(N5C[C@H](C)N(C(=O)NC)C[C@H]5C)nc4)cc3OC(F)(F)F)cc2)c[nH]1)C(C)C [Example 7-4]	B (B represents pEC50 between 8 and 9 (EC50 between 1 and 10 nM))
CNC(=O)N1CCC[C@@]1(C)C(=O)N1C[C@@H](C)N(c2ccc(C(=O)Nc3cc(OC(F)(F)F)c(-c4ccc(-c5c[nH]c([C@@H]6C[C@H](C)CN6C(=O)[C@@H](NC(=O)OC)C(C)C)n5)cc4)cc3Cl)cn2)C[C@@H]1C [Example 1-23]	D (D represents pEC50>10 (EC50<0.1 nM))
COC(=O)NC(C(=O)N1CC(OC)CC1c1nc(-c2ccc(-c3cc(F)c(NC(=O)c4ccc(N5CCN(C(=O)C(C)(C)C)CC5C)nc4)cc3OC(F)(F)F)cc2)c[nH]1)C(C)(C)O (stereo not shown) [Example 16-6]	D (D represents pEC50>10 (EC50<0.1 nM))
COC(=O)N[C@H](C(=O)N1C[C@@H](C)C[C@H]1c1nc(-c2ccc(-c3ccc(C(=O)Nc4ccc(N5CCN(C(=O)C6CC6)C[C@H]5C)nc4)cc3OC(F)(F)F)cc2)c[nH]1)C(C)C [Example 4-35]	C (C represents pEC50 between and 9 and about 10, (EC50 between 1 nM and 0.1 nM))
COC(=O)N[C@H](C(=O)N1C[C@@H](C)C[C@H]1c1nc(-c2ccc(-c3cc(Cl)c(NC(=O)c4ccc(N5CCN(C(=O)C6CCC6C)C[C@H]5C)nc4)cc3OC(F)(F)F)cc2)c[nH]1)C(C)C (stereo partly shown) [Example 1-91]	D (D represents pEC50>10 (EC50<0.1 nM))
CNC(=O)N1CCN(c2ccc(C(=O)Nc3ccc(-c4ccc(-c5c[nH]c([C@@H]6C[C@H](O)CN6C(=O)[C@@H](NC(=O)OC)C(C)C)n5)cc4)cc3)cn2)[C@H](C)C1 [Example 26-3]	B (B represents pEC50 between 8 and 9 (EC50 between 1 and 10 nM))
COC(=O)NC(C(=O)N1CC(C)CC1c1nc(-c2ccc(-c3cc(Cl)c(NC(=O)c4ccc(N5CCN(C(=O)C(C)(C)C)CC5C)nc4)cc3C(F)(F)F)cc2)c[nH]1)C1CC(C)OC(C)C1 (stereo not shown) [Example 19-10]	A (A represents a pEC50 value between 6 and 8 (EC50 between 1 μM and 10 nM))
CC[C@@H](C)C(=O)N1CCN(c2ccc(C(=O)Nc3cc(OC(F)(F)F)c(-c4ccc(-c5c[nH]c([C@@H]6C[C@H](C)CN6C(=O)[C@@H](NC(=O)OC)C(C)C)n5)cc4)cc3Cl)cn2)[C@H](C)C1 [Example 1-86]	D (D represents pEC50>10 (EC50<0.1 nM))
COC(=O)N[C@H](C(=O)N1C[C@@H](C)C[C@H]1c1nc(-c2ccc(-c3ccc(C(=O)Nc4ccc(N5C[C@H](C)N(C(=O)NC(C)C)C[C@H]5C)nc4)cc3OC(F)(F)F)cc2)c[nH]1)C(C)C [Example 4-25]	C (C represents pEC50 between and 9 and about 10, (EC50 between 1 nM and 0.1 nM))
COC(=O)N[C@H](C(=O)N1C[C@@H](N(C)C)C[C@H]1c1nc(-c2ccc(-c3cc(Cl)c(NC(=O)c4ccc(N5CCN(C(=O)C(C)(C)C)C[C@H]5C)nc4)cc3OC(F)(F)F)cc2)c[nH]1)C(C)C [Example 2-7]	C (C represents pEC50 between and 9 and about 10, (EC50 between 1 nM and 0.1 nM))
COC(=O)N[C@H](C(=O)N1C[C@H](O)C[C@H]1c1nc(-c2ccc(-c3ccc(NC(=O)c4ccc(N5CCN(C(=O)[C@]6(C)CCCN6C(=O)OC)C[C@H]5C)nc4)cc3)cc2)c[nH]1)C(C)C [Example 26-1]	A (A represents a pEC50 value between 6 and 8 (EC50 between 1 μM and 10 nM))
COC(=O)NC(C(=O)N1C[C@@H](C)C[C@H]1c1nc(-c2ccc(-c3cc(Cl)c(C(=O)Nc4ccc(N5CCN(C(=O)C(C)(C)C)C[C@H]5C)nc4)cc3OC(F)(F)F)cc2)c[nH]1)C1C[C@@H](C)O[C@@H](C)C1 (stereo partly shown) [Example 23-1]	A (A represents a pEC50 value between 6 and 8 (EC50 between 1 μM and 10 nM))
CNC(=O)N1CCC[C@@]1(C)C(=O)N1CCN(c2ccc(C(=O)Nc3cc(OC(F)(F)F)c(-c4ccc(-c5c[nH]c([C@@H]6C[C@H](C)CN6C(=O)[C@@H](NC(=O)OC)C(C)C)n5)cc4)cc3Cl)cn2)[C@H](C)C1 [Example 1-22]	D (D represents pEC50>10 (EC50<0.1 nM))

same assay, conditions: Hepatitis C virus, read-out: Genotype 1a, HCV genotype 1a replicon

Structure (SMILES)	EC50 [nM]
COC(=O)N[C@H](C(=O)N1C[C@@H](C)C[C@H]1c1nc(-c2ccc(-c3cc(Cl)c(NC(=O)c4ccc(N5CCN(C(=O)C(C)(C)OC)C[C@H]5C)nc4)cc3OC(F)(F)F)cc2)c[nH]1)C(C)C [Example 12-43]	< 0.1
COC(=O)N[C@H](C(=O)N1CC2(C[C@H]1c1nc(-c3ccc(-c4cc(Cl)c(NC(=O)c5ccc(N6CCN(C(=O)C(C)(C)C)C[C@H]6C)nc5)cc4OC(F)(F)F)cc3)c[nH]1)OCCO2)C(C)C [Example 5-11]	< 0.1
CCC(=O)NCC(C)(C)C(=O)N1CCN(c2ccc(C(=O)Nc3cc(OC(F)(F)F)c(-c4ccc(-c5c[nH]c([C@@H]6C[C@H](C)CN6C(=O)[C@@H](NC(=O)OC)C(C)C)n5)cc4)cc3Cl)cn2)[C@H](C)C1 [Example 12-41]	0.1 to 1
COC(=O)N[C@H](C(=O)N1C[C@H](OC)C[C@H]1c1nc(-c2ccc(-c3cc(Cl)c(NC(=O)c4ccc(N5CCN(C(=O)C(C)(C)C)C[C@H]5C)nc4)cc3OC(F)(F)F)cc2)c[nH]1)C1CCOCC1 [Example 5-20]	< 0.1
COC(=O)N[C@H](C(=O)N1C[C@@H](OC)C[C@H]1c1nc(-c2ccc(-c3cc(Cl)c(NC(=O)c4ccc(N5CCN(C(=O)C(C)(C)CO)C[C@H]5C)nc4)cc3OC(F)(F)F)cc2)c(CO)[nH]1)C(C)C [Example 5-17]	< 0.1
CNC(=O)N1C[C@@H](C)N(c2ccc(C(=O)Nc3cc(OC(F)(F)F)c(-c4ccc(-c5c[nH]c([C@@H]6C[C@H](C)CN6C(=O)C(c6ccccc6)N(C)C)n5)cc4)cc3Cl)cn2)C[C@@H]1C (stereo partly shown) [Example 7-11]	< 0.1
COC(=O)N[C@H](C(=O)N1C[C@@H](C)C[C@H]1c1nc(-c2ccc(-c3cc(Cl)c(NC(=O)c4ccc(N5CCN(C(=O)C6CC(CO)C6)C[C@H]5C)nc4)cc3OC(F)(F)F)cc2)c[nH]1)C(C)C (stereo partly shown) [Example 12-55]	< 0.1
COC(=O)N[C@H](C(=O)N1CC(C)(C)C[C@H]1c1nc(-c2ccc(-c3ccc(C(=O)Nc4ccc(N5CCN(C(=O)[C@]6(C)CCCN6C(=O)[C@@H](NC(=O)OC)C(C)C)C[C@H]5C)nc4)cc3OC(F)(F)F)cc2)c[nH]1)C(C)C [Example 6-6]	0.1 to 1
COC(=O)N[C@H](C(=O)N1C[C@@H](C)C[C@H]1c1nc(-c2ccc(-c3cc(Cl)c(NC(=O)c4ccc(N5CCN(C(=O)C(C)(C)C(=O)O)C[C@H]5C)nc4)cc3OC(F)(F)F)cc2)c[nH]1)C(C)C [Example 12-58]	0.1 to 1
COC(=O)N[C@H](C(=O)N1C[C@@H](Oc2ccn(C)n2)C[C@H]1c1nc(-c2ccc(-c3cc(Cl)c(NC(=O)c4ccc(N5CCN(C(=O)C(C)(C)C)C[C@H]5C)nc4)cc3OC(F)(F)F)cc2)c[nH]1)C(C)C [Example 15-2]	0.1 to 1
COC(=O)NC(C(=O)N1C[C@@H](C)C[C@H]1c1nc(-c2ccc(-c3ccc(C(=O)Nc4ccc(N5CCN(C(=O)C(C)(C)C)C[C@H]5C)nc4)c(Cl)c3OC(F)(F)F)cc2)c[nH]1)C(C)C (stereo partly shown) [Example 25-4]	0.1 to 1
